What was measured:
[1] = PGE2-induced febrile response after intracerebroventricular injection, telemetric body temperature; type: in vivo, mice; conditions: 4 nmol PGE2 intracerebroventricular
Procedure: We confirmed the absence of overt physiological signaling defects by ensuring that PGE2-evoked (the missing product in mPGESl1^−/− mice that is generated following LPS challenge) pyresis was indeed intact in mPGES1^−/− mice. We performed intracerebroventricular injections of PGE2 (4 nmol in 2 μl artificial cerebrospinal fluid) and then monitored using telemetry the body temperature in awake and unrestrained animals. […] Thus, a pronounced temperature increase was seen almost immediately after the PGE2 injection. It reached its peak after 30 minutes and lasted for about 1.5 hour. To determine that the elicited febrile response was due to specific activation of PGE2 receptors and not represented an unspecific response, we injected the same amount of PGE2 into EP3 receptor^−/− mice as we had injected into mPGES-1^−/− mice.
Telemetric temperature recordings: One week prior to each experiment, a temperature transmitter (Data Science International) was implanted into the peritoneal cavity of each mouse. Recordings were made via a receiver located beneath the cage and the data were fed into a computer. Recordings started at least one hour prior to surgery or injection, and were obtained every second minute throughout the entire session.
Intracerebroventricular injections of PGE2: Mice were mounted in a stereotaxic frame under anesthesia with 1% isoflurane in a 30/70% mixture of O2/N2, and kept at 37° C. through a feedback controlled heating pad. A drill hole was made in the skull through which a 29 gauge (o.d.) needle connected by a silicon tube to a Hamilton syringe was inserted into the lateral ventricle (0.5 mm posterior to Bregma, 1 mm lateral to midline, and 2.5 mm vertical to the skull surface), and 4 nmol PGE2 in 2 μl artificial cerebrospinal fluid was injected during 1 min. Control injection consisted of artificial cerebrospinal fluid. Two minutes after the end of the injection, the needle was removed, the skin sutured, and the gas anesthesia turned off. All animals were awake within 5 min after injection and were immediately returned to their home cage for resumed body temperature recordings.

mPGES-1 = target: T1, mPGES-1 (Homo sapiens, UniProt O14684); conditions: literature values (Thoren et al. 2000; Mancini et al. 2001; Quraishi et al. 2002); read-out: IC50 for inhibition of mPGES-1; cited from earlier work
T1 sequence (O14684 1-152): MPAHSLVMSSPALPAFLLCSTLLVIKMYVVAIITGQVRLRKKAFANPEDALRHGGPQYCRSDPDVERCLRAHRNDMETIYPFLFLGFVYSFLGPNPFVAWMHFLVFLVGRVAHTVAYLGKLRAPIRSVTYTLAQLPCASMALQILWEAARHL

Structure (SMILES) | duration of temperature increase [1] | time to peak of temperature increase after injection [1] [min] | febrile response ([1]; EP3 receptor−/− mice) | temperature elevation ([1]; mPGES+/+ mice) | febrile response ([1]; mPGES-1−/− mice) | IC50 (mPGES-1) [µM]
CCCCC[C@H](O)/C=C/[C@H]1[C@H](O)CC(=O)[C@@H]1C/C=C\CCCC(=O)O (relative stereo) [PGE2, 11α, 15(S)-dihydroxy-9-ketoprosta-5-cis-13-trans-dienoic acid] | about 1.5 hour | 30 | did not display any febrile response | rapid and pronounced temperature elevation | rapid and strong febrile response | –
CCCCCC=CCC=CC=CC=CC(SCC(NC(=O)CCC(N)C(=O)O)C(=O)NCC(=O)O)C(O)CCCC(=O)O [leukotriene C4, 5(S)-hydroxy-6(R)-S-glutathionyl-7,9-trans-11,14-cis-eicosa-tetraenoic acid] | – | – | – | – | – | 5
